Each structure is given as a SMILES string.

Test [1] deals with T1, Ghrelin receptor (Homo sapiens, UniProt Q92847). The test is described as follows: Aeg. Format: cell-based.
Target sequence in this assay (Q92847 whole entry): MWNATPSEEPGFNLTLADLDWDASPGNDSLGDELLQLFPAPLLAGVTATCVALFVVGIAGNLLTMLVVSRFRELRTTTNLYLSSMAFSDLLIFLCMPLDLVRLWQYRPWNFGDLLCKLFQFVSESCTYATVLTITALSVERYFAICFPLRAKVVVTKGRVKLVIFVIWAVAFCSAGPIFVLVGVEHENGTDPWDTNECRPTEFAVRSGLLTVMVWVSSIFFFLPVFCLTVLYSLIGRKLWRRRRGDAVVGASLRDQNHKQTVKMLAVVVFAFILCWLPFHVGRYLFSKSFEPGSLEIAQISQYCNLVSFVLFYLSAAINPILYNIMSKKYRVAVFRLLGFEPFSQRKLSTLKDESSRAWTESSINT
Test [2] has as its target T1, Ghrelin receptor. Description: Receptor Selection and Amplification Technology (R-SAT) assay. The test is classed as cell-based. Further details: expressed in transfected cells; host or cells: NIH3T3. The following applies: for IC50: '—' not defined (nd used separately), read-out: RSAT pIC50 (converted); for Emax: read-out: RSAT Eff(%).
Target sequence in this assay (Q92847 whole entry): as above
The target in another test is T2, GHSR1a receptor (Homo sapiens, UniProt Q92847).
T2 construct: expressed in transfected cells; host or cells: HEK293 (membranes)
T2 sequence (Q92847 whole entry): as above
The test is described as follows: 125I-Ghrelin binding assay. To be noted: Binding pKi, displacement of 125I-ghrelin (0.053 nM), membranes of HEK293 cells transfected with GHSR1a; Cheng-Prussoff; '—' not defined.

Test [3] concerns fasted, male Sprague-Dawley rats. Description: Suppression of acute feeding response in fasted rats. Format: in vivo, rat. To be noted: intraperitoneal, 30 mg/kg.
For test [4], the target named is T1, Ghrelin receptor. The test is described as follows: pIC50. Also on record: expressed in transfected cells; host or cells: NIH3T3. An excerpt: Table printed on a drawing sheet, Figure 1
First copying reader's note: The table stands under a dose-response plot; chemical names broken over two lines at a hyphen are joined by a blank.
Target sequence in this assay (Q92847 whole entry, looked up): as the sequence (Q92847 whole entry) above

In general, Ki refers to a dissociation constant, usually derived from enzyme kinetics or from competition with a known ligand. Consider `COc1cccc2c(C(=O)c3ccccc3)cn(CCCN3CCC(c4nc5ccccc5s4)CC3)c12`, for which the IC50 against Ghrelin receptor [1] was 63.1 nM. Besides, at Ghrelin receptor [2], the IC50 was 0.2 nM and the Emax came to 107%. In addition, the affinity on GHSR1a receptor, expressed as Ki, was 39.8 nM.
For `COc1cccc2c(C(=O)C3CC3)cn(CCCN3CCC(Oc4ccc(F)cc4)CC3)c12`, in that order: 39.8 nM, 0.398 nM, 101% and 50.1 nM.
For the compound `CCCCC1CCN(CCCn2cc(C(C)=O)c3ccccc32)CC1` [1-(1-(3-(4-butylpiperidin-1-yl)propyl)-1H-indol-3-yl)ethanone], the suppression of feeding result in test [3] was “Robust suppression of feeding”. Besides, at Ghrelin receptor [4], the IC50 is 158 nM.
